# ChEMBL document CHEMBL5338791, “Discovery of Novel 1,3-Diphenylpyrazine Derivatives as Potent S-Phase Kinase-Associated Protein 2 (Skp2) Inhibitors for the Treatment of Cancer” (J Med Chem, 2023)
# Activity calls are given as the source filed them. The calls are words filed in the database; no cut-off is given here.
# Key:
# [1] = Solubility in cell culture medium by HPLC analysis; format: physicochemical
# [2] = tested on: MCF7; assay: Antitumor activity against human MCF7 cells assessed as cell growth inhibition incubated for 72 hrs by MTT assay; format: functional, cell-based; settings: MCF7, 72 h
# [3] = tested on: MGC-803; assay: Antitumor activity against human MGC-803 cells assessed as cell growth inhibition incubated for 72 hrs by MTT assay; format: functional, cell-based; settings: MGC-803, 72 h
# [4] = tested on: PC-3; assay: Antitumor activity against human PC-3 cells assessed as cell growth inhibition incubated for 72 hrs by MTT assay; format: functional, cell-based; settings: PC-3, 72 h
# [5] = tested on: NCI-H1299; assay: Antitumor activity against human NCI-H1299 cells assessed as cell growth inhibition incubated for 72 hrs by MTT assay; format: functional, cell-based; settings: NCI-H1299, 72 h
# [6] = Antitumor activity against human EC1 cells assessed as cell growth inhibition incubated for 72 hrs by MTT assay; format: functional, cell-based; settings: EC1, 72 h
# [7] = molecular target: T1, S-phase kinase-associated protein 2/Cyclin-dependent kinases regulatory subunit 1/S-phase kinase-associated protein 1 (Homo sapiens, UniProt Q13309); assay: Inhibition of GST-tagged Skp2/Skp1 (unknown origin)/His6-tagged Cks1 (unknown origin) interaction preincubated with Skp2/Skp1 for 10 mins followed by Cks1 addition measured after 20 mins by HTRF assay; format: protein assay
# [8] = molecular target: T1, S-phase kinase-associated protein 2/Cyclin-dependent kinases regulatory subunit 1/S-phase kinase-associated protein 1; assay: Inhibition of GST-tagged Skp2/Skp1 (unknown origin)/His6-tagged Cks1 (unknown origin) interaction by AlphaScreen assay; format: protein assay
# [9] = Toxicity in mouse assessed as increase in blood BUN level at 5 mg/kg; format: organism-based; settings: in vivo
# [10] = Toxicity in mouse assessed as increase in blood total bilirubin level at 5 mg/kg; format: organism-based; settings: in vivo
# [11] = Toxicity in mouse assessed as decrease in total protein level at 5 mg/kg; format: organism-based; settings: in vivo
# [12] = Toxicity in mouse assessed as increase in blood GGT level at 5 mg/kg; format: organism-based; settings: in vivo
# [13] = tested on: PC-3; assay: Antitumor activity against human PC-3 cells xenografted in NOD-SCID mouse model assessed as tumor growth inhibition at 5 mg/kg, ip administered once every 3 days for 21 days relative to control; format: functional; settings: PC-3, 504 h, time 21 day, read-out: TGI
# [14] = Toxicity in mouse assessed as increase in blood creatinine level at 5 mg/kg; format: organism-based; settings: in vivo
# [15] = Toxicity in mouse assessed as decrease in platelet level at 5 mg/kg; format: organism-based; settings: in vivo
# [16] = Toxicity in mouse assessed as increase in blood glutamic pyruvic transaminase level at 5 mg/kg; format: organism-based; settings: in vivo
# [17] = tested on: PC-3; assay: Downregulation of Skp2 level in human PC-3 cells at 20 uM incubated for 48 hrs by Western blot analysis; format: functional, cell-based
# [18] = tested on: MGC-803; assay: Induction of cell cycle arrest in human MGC-803 cells assessed as accumulation of cells at S phase at 20 uM incubated for 48 hrs by flow cytometry (reference value: 22.72 %); format: functional
# [19] = tested on: MGC-803; assay: Induction of apoptosis in human MGC-803 cells assessed as late apoptotic cells at 20 uM incubated for 48 hrs by annexin V-FITC/PI staining based flow cytometry (reference value: 0.95 %); format: functional
# [20] = tested on: MGC-803; assay: Induction of apoptosis in human MGC-803 cells assessed as necrotic cells at 20 uM incubated for 48 hrs by annexin V-FITC/PI staining based flow cytometry (reference value: 0.89 %); format: functional
# [21] = tested on: MGC-803; assay: Induction of cell cycle arrest in human MGC-803 cells assessed as accumulation of cells at G2 phase at 20 uM incubated for 48 hrs by flow cytometry (reference value: 21.35 %); format: functional
# [22] = tested on: PC-3; assay: Upregulation of p21 level in human PC-3 cells at 20 uM incubated for 48 hrs by Western blot analysis; format: functional, cell-based
# [23] = tested on: PC-3; assay: Induction of apoptosis in human PC-3 cells assessed as viable cells at 20 uM incubated for 48 hrs by annexin V-FITC/PI staining based flow cytometry (reference value: 98.6 %); format: functional; settings: read-out: Activity
# [24] = tested on: MGC-803; assay: Induction of apoptosis in human MGC-803 cells assessed as viable cells at 20 uM incubated for 48 hrs by annexin V-FITC/PI staining based flow cytometry (reference value: 98 %); format: functional; settings: read-out: Activity
# [25] = tested on: PC-3; assay: Induction of cell cycle arrest in human PC-3 cells assessed as accumulation of cells at G2 phase at 20 uM incubated for 48 hrs by flow cytometry (reference value: 22.59 %); format: functional
# [26] = tested on: PC-3; assay: Induction of cell cycle arrest in human PC-3 cells assessed as accumulation of cells at G1 phase at 20 uM incubated for 48 hrs by flow cytometry (reference value: 57.39 %); format: functional
# [27] = tested on: MGC-803; assay: Downregulation of Skp2 level in human MGC-803 cells at 20 uM incubated for 48 hrs by Western blot analysis; format: functional, cell-based
# [28] = tested on: PC-3; assay: Induction of apoptosis in human PC-3 cells assessed as necrotic cells at 20 uM incubated for 48 hrs by annexin V-FITC/PI staining based flow cytometry (reference value: 0.14 %); format: functional
# [29] = tested on: PC-3; assay: Induction of apoptosis in human PC-3 cells assessed as late apoptotic cells at 20 uM incubated for 48 hrs by annexin V-FITC/PI staining based flow cytometry (reference value: 0.45 %); format: functional
# [30] = tested on: PC-3; assay: Induction of cell cycle arrest in human PC-3 cells assessed as accumulation of cells at S phase at 20 uM incubated for 48 hrs by flow cytometry (reference value: 22.44 %); format: functional
# [31] = tested on: PC-3; assay: Induction of apoptosis in human PC-3 cells assessed as early apoptotic cells at 20 uM incubated for 48 hrs by annexin V-FITC/PI staining based flow cytometry (reference value: 0.85 %); format: functional
# [32] = tested on: PC-3; assay: Upregulation of p27 level in human PC-3 cells at 20 uM incubated for 48 hrs by Western blot analysis; format: functional, cell-based
# [33] = tested on: MGC-803; assay: Upregulation of p27 level in human MGC-803 cells at 20 uM incubated for 48 hrs by Western blot analysis; format: functional, cell-based
# [34] = tested on: MGC-803; assay: Induction of cell cycle arrest in human MGC-803 cells assessed as accumulation of cells at G1 phase at 20 uM incubated for 48 hrs by flow cytometry (reference value: 54.46 %); format: functional
# [35] = tested on: MGC-803; assay: Induction of apoptosis in human MGC-803 cells assessed as early apoptotic cells at 20 uM incubated for 48 hrs by annexin V-FITC/PI staining based flow cytometry (reference value: 0.21 %); format: functional
# [36] = tested on: MGC-803; assay: Upregulation of p21 level in human MGC-803 cells at 20 uM incubated for 48 hrs by Western blot analysis; format: functional, cell-based
# T1 sequence (P61024 whole entry): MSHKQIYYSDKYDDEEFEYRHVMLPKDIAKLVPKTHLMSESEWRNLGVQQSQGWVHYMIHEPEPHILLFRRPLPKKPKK
# T1 sequence (Q13309 whole entry): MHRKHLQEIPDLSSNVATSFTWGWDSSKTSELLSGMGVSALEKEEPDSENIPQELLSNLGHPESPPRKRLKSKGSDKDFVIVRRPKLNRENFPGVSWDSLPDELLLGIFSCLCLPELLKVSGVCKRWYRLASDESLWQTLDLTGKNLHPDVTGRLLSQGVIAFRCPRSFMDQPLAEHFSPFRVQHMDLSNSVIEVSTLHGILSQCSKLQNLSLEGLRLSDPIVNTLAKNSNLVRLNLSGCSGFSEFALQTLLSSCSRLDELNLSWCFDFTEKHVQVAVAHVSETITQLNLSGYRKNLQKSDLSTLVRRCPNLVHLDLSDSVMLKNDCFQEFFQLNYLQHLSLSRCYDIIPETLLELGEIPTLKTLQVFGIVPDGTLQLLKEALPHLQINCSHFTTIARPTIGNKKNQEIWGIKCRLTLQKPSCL
# T1 sequence (P63208 whole entry, further chain): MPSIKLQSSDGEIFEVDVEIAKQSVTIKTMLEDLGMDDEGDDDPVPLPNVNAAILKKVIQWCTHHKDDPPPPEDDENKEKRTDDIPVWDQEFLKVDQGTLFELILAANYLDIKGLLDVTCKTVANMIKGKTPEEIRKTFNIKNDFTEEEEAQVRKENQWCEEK
Structure (SMILES),solubility [1],IC50 [2],IC50 [3],IC50 [4],IC50 [5],IC50 [7],IC50 [6],further results
CC(C)(C)C(=O)NCC1CCN(c2cnc(-c3ccccc3)c(-c3ccccc3)n2)CC1,0.1 µg/mL,51.8 µM,> 100 µM,68 µM,59 µM,,75.6 µM,
O=C(OC12CC3CC(CC(C3)C1)C2)c1ccc(NCc2cc(O)ccc2O)cc1,,,,,,,,IC50 [8]: 36.6 µM
CC(C)(C)C(=O)NCC1CCN(c2cnc(-c3ccc(CO)cc3)c(-c3ccccc3)n2)CC1,0.06 µg/mL,> 100 µM,> 100 µM,> 100 µM,100 µM,,> 100 µM,
CC(=O)O[C@H]1C(=O)[C@@]2(C)[C@H]([C@H](OC(=O)c3ccccc3)[C@]3(O)C[C@H](OC(=O)[C@H](O)[C@@H](NC(=O)c4ccccc4)c4ccccc4)C(C)=C1C3(C)C)[C@]1(OC(C)=O)CO[C@@H]1C[C@@H]2O [PACLITAXEL],,,,,,,,Activity [9]: Toxic; Activity [10]: Toxic; Activity [11]: Toxic; Activity [12]: Toxic; inhibition in vivo at 5 mg/kg [13]: 75.8%; Activity [14]: Toxic; Activity [15]: Toxic; Activity [16]: Toxic
O=C(NC1CCN(c2cnc(-c3ccccc3)c(-c3ccccc3)n2)CC1)c1ccccc1,0.1 µg/mL,25.1 µM,41.3 µM,> 100 µM,> 100 µM,,> 100 µM,
O=C(NCC1CCN(c2cnc(-c3ccccc3)c(-c3ccccc3)n2)CC1)N1CCOCC1,0.55 µg/mL,47.1 µM,59.3 µM,28.6 µM,30.4 µM,,51.8 µM,
Clc1cnc(-c2ccccc2)c(-c2ccccc2)n1,,,,,,> 50 µM,,
c1ccc(-c2ncc(N3CCOCC3)nc2-c2ccccc2)cc1,,,,,,> 50 µM,,
CS(=O)(=O)NC(=O)COCCCCNc1cnc(-c2ccccc2)c(-c2ccccc2)n1,,,,,,> 50 µM,,
CC(C)Nc1cnc(-c2ccccc2)c(-c2ccccc2)n1,,,,,,> 50 µM,,
CN(C(=O)OC(C)(C)C)C1CCN(c2cnc(-c3ccccc3)c(-c3ccccc3)n2)CC1,,,,,,> 25 µM,,
CC(C)(C)OC(=O)NCCCNc1cnc(-c2ccccc2)c(-c2ccccc2)n1,,,,,,> 25 µM,,

# Second part, led by results:
solubility [1],IC50 [2],IC50 [3],IC50 [4],IC50 [5],IC50 [7],Structure (SMILES),IC50 [6],further results
0.57 µg/mL,58.1 µM,43.9 µM,22.1 µM,68.3 µM,2.8 µM,CCC(=O)NCC1CCN(c2cnc(-c3ccccc3)c(-c3ccccc3)n2)CC1,52.6 µM,
0.51 µg/mL,18 µM,23.6 µM,11.7 µM,41.6 µM,2.3 µM,CC(C)(C)OC(=O)NCC1CCN(c2cnc(-c3ccccc3)c(-c3ccccc3)n2)CC1,45.6 µM,
0.19 µg/mL,65.6 µM,87.2 µM,63.7 µM,50.8 µM,2.7 µM,CC(C)(C)C(=O)NCC1CCN(c2cnc(-c3ccc(S(C)(=O)=O)cc3)c(-c3ccccc3)n2)CC1,88.2 µM,
0.08 µg/mL,> 100 µM,> 100 µM,70.9 µM,> 100 µM,2.4 µM,O=C(NCC1CCN(c2cnc(-c3ccccc3)c(-c3ccccc3)n2)CC1)c1ccccc1,81.1 µM,
,,,,,42.8 µM,CC(C)N(CCCCOCC(=O)NS(C)(=O)=O)c1cnc(-c2ccccc2)c(-c2ccccc2)n1 [SELEXIPAG],,Activity [17]: Active; Activity [18]: 27.3%; Activity [19]: 1.21%; Activity [20]: 0.44%; Activity [21]: 21.27%; Activity [22]: Active; viability at 20 µM [23]: 92.7%; viability at 20 µM [24]: 96.8%; Activity [25]: 18.81%; Activity [26]: 44.88%; Activity [27]: Active; Activity [28]: 2.22%; Activity [29]: 4.54%; Activity [30]: 34.85%; Activity [31]: 0.57%; Activity [32]: Active; Activity [33]: Active; Activity [34]: 49.75%; Activity [35]: 1.58%; Activity [36]: Active
0.13 µg/mL,42.1 µM,46.9 µM,96.5 µM,> 100 µM,1.7 µM,CC(C)(C)OC(=O)N1CCN(c2cnc(-c3ccccc3)c(-c3ccccc3)n2)CC1,52.3 µM,
,,,,,10.2 µM,CC(C)(C)C(=O)NC1CCN(c2cnc(-c3ccccc3)c(-c3ccccc3)n2)CC1,,
,,,,,52.6 µM,CC(C)N(CCCCOCC(=O)N1CCOCC1)c1cnc(-c2ccccc2)c(-c2ccccc2)n1,,
,,,,,> 25 µM,O=C(CCCl)N1CCN(c2cnc(-c3ccccc3)c(-c3ccccc3)n2)CC1,,
,,,,,25.2 µM,NC1CCN(c2cnc(-c3ccccc3)c(-c3ccccc3)n2)CC1,,
